# In BindingDB's records for patent WO2022091056 (NOVARTIS AG, 2022):
# Molecular target: Interleukin-17 receptor A/ (Homo sapiens, UniProt Q16552)
# Assay: Human IL-17A x IL-17RA TR-FRET assay
# Experimental: The final total assay volume is 10 µL. […] The neutral control (NC) contains all the assay components, but DMSO instead of test compound. […] The fluorescence values for emission at 615 nm and 665 nm are loaded to the evaluation software Helios.
# Sequence of Interleukin-17 receptor A/ (Q16552 whole entry): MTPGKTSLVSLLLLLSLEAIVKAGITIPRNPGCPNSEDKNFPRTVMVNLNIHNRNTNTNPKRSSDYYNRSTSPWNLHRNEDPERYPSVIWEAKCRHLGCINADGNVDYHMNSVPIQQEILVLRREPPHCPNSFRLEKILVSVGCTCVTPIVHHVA
# Sequence of Interleukin-17 receptor A/ (Q96F46 whole entry, further chain): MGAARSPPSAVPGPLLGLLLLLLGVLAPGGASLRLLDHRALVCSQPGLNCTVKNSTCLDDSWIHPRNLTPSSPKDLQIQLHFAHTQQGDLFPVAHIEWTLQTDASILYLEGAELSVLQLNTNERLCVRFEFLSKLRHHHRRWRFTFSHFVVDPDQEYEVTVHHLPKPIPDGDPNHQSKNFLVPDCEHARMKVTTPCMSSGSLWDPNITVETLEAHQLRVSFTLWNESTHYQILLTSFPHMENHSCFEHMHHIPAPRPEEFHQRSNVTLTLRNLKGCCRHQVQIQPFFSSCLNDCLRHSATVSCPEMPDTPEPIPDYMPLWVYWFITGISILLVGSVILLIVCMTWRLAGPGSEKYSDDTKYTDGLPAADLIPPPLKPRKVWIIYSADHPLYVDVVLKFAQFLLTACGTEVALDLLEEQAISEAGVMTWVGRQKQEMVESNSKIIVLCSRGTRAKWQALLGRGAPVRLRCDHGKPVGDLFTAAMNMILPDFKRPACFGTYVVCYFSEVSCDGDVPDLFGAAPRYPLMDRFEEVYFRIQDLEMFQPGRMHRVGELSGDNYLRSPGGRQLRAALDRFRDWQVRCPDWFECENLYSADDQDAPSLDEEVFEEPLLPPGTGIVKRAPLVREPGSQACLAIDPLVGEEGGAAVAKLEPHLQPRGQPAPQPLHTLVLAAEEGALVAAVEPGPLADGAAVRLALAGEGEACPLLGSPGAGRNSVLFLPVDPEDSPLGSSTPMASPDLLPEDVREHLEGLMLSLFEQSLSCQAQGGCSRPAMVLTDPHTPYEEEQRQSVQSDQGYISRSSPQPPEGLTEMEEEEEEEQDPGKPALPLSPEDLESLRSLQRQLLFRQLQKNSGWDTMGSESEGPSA
row,SMILES,IC50
1,"Cc1c[n+]([O-])cc(C)c1-c1ccc(NC(=O)[C@@H](NC(=O)c2ccnn2C)C2CCCCC2)cc1 [WO2022091056, Example 97]",1730 nM
2,"Cc1c(-c2ccc(NC(=O)[C@@H](NC(=O)c3ccnn3C)[C@H]3CCCC(F)(F)C3)cc2F)c(Cl)cc[n+]1[O-] [WO2022091056, Example 110]",23 nM
3,"Cc1cc[n+]([O-])c(C)c1-c1ccc(NC(=O)[C@@H](NC(=O)c2conc2CN)C2CCCCC2)cc1 [WO2022091056, Example 79]",918 nM
4,"Cc1c(-c2ccc(NC(=O)[C@@H](NC(=O)c3ccnn3C)C3CCCCC3)cc2F)ccc[n+]1[O-] [WO2022091056, Example 83]",1980 nM
5,"Cc1nccc(Cl)c1-c1ccc(NC(=O)[C@@H](NC(=O)c2ccnn2C)C2CCCCC2)cc1F [WO2022091056, Example 137]",3790 nM
